Here are results for 1 substance from publication PMC3359661, “FK228 Analogues Induce Fetal Hemoglobin in Human Erythroid Progenitors” (Anemia, 2012).

For assay [1], the system named is γ-globin transcription in primary erythroid progenitors. Description: RT-qPCR of γ-globin mRNA in primary erythroid progenitors (two-phase liquid culture). Type of assay: cell-based, human. To be noted: Day 11 erythroid progenitors treated 48 hr (Figure 3 legend), untreated normalized to one. Here is the method: (§1) The two-phase liquid culture system was established as previously published by Fibach et al. using buffy coat mononuclear cells, purchased from Carter Blood Care (Fort Worth, TX) in accordance with the guidelines of the Institutional Review Board at the University of Texas at Dallas. During phase 1, cells were grown in IMDM medium with 30% fetal bovine serum and 50 ng/mL each of the granulocyte-monocyte colony-stimulating factor, Interleukin-3, and stem cell factor. Subsequently, phase 2 was initiated on day 7 with the addition of erythropoietin (2 U/mL) and stem cell factor (50 ng/mL). The cells were treated on Day 11 with the different test compounds and harvested on Day 14 (72 hr incubation).
Total RNA was isolated from samples using RNA Stat-60 (TEL-TEST “B” Inc., Friendswood, TX) and used for RT-qPCR analysis as previously published. […] The globin mRNA levels were calculated as a ratio of GAPDH (γ/GAPDH, β/GAPDH), and the γ/β-globin mRNA ratio was calculated by dividing γ/GAPDH by β/GAPDH.
Figure 3 JMA33 and JMA26 induce HbF in primary erythroid cells. (a) Day 11 erythroid progenitors were treated for 48 hr with the controls agents and the FK228 analogues shown and then analyzed by RT-qPCR. […] Data were calculated as the means ± SEM. […] The images generated were used to count 500 DAPI positive cells and the %FITC positive cells were calculated accordingly.
For orientation: In qPCR the cycle at which signal appears reflects the starting amount.

Assay [2] concerns γ-globin promoter activity in KU812-γF/βR stable lines. In words: KU812 dual-luciferase reporter stable lines (μLCRβprRluc AγprFluc), γ-globin promoter activity. It counts as cell-based, human. To be noted: 48 hr; for Fold change (γ/γ + 2β): untreated normalized to one. From the text:
KU812 stable cell lines were created by co-transfecting wild-type KU812 cells with pEGFP-NI (G418 selectable marker) and theμLCRβ prRluc ^A γ prFluc dual-reporter a kind gifts from Dr. George Stamatoyannopoulos (University of Washington). […] Likewise, 1.4 kb of human Aγ-globin promoter was inserted upstream of firefly luciferase to create ^A γ prFluc. The μLCR (locus control region), Pβ prRluc, and ^A γ prFluc fragments were subsequently cloned into the mammalian vector, pRL-null.
After 72 hr, G418 was added at a concentration of […] for 3 days then maintained under selection pressure indefinitely at a concentration of […]. KU812 stable lines were treated with the various drugs at the same concentrations described above. FK228 and analogues were screened at concentrations between 1–1000 nM for 48 hr and cell toxicity was monitored by 2% Trypan blue exclusion. The effect of drug treatments on γ-globin and β-globin promoter activity was monitored by luciferase assay.
Luciferase activity was monitored under the different experimental conditions using the Dual Luciferase Assay Reporter System (Promega, Madison, WI). The activity of firefly luciferase represents γ-globin promoter activity (γF), while the renilla luciferase is the read-out for β-globin promoter activity (βR). The β-globin promoter was strategically cloned between the LCR and γ-globin promoter to increase β expression, while simultaneously increasing the sensitivity of detection of γ-globin gene inducers.
After drug treatments, KU812 stable cells were washed with 1X phosphate buffered saline and lysed in 1X Passive Lysis Buffer for 15 min, then protein extracts were added to the Luciferase Assay Reagent II and firefly luciferase activity quantified in a Turner Designs TD-20/20 luminometer (Sunnyvale, CA). To measure βR activity, Stop & Glo Reagents was added to measure the renilla luciferase activity. Total protein was determined by Bradford assay on a Beckman DU 640 spectrophotometer (Chaska, MN) and luciferase activity was corrected for total protein.
Subsequently, three independent dual-luciferase reporter KU812 stable cell lines were established to analyze the ability FK228 analogues to induce γ-globin promoter activity without an effect on β-globin transcription. […] Since the firefly luciferase gene (γF) has approximately […] luminescence than the renilla gene (βR), the renilla activity was multiplied by two to adjust for the difference in luminescence yielding the γ/γ+2β final measurement. The FK228 analogues were examined at concentrations ranging from 1–1000 nM in the three stable lines. After 48-hour treatments, cells were harvested and protein isolated for luciferase activity using the Dual Luciferase Reporter Assay.
A general note: In a reporter assay the amount or activity of a reporter protein is the signal.

Assay [3] deals with γ-promoter activity in GM979 stable line. To be noted: μLCRβprRluc AγprFluc GM979 stable line; cited from earlier work. The text has this: Many published studies have shown that primary erythroid cells remain the best system to confirm HbF-inducing agents and to serve as a predictor of efficacy in vivo. Human burst forming units—erythroid cells in clonogenic assays or erythroid progenitors grown in liquid culture [39, 41]—have been used to evaluate putative HbF inducers. However, these assays are not easily adaptable to large-scale drug screening, thus immortalized cell lines have been investigated for this purpose.

Assay [4] concerns HbF levels in primary erythroid cells. In words: HbF ELISA in primary erythroid cells. It counts as cell-based, human. The procedure:
as §1
Total hemoglobin was quantified using 20 μL of protein extract from one million KU812 cells mixed with 5 mL of Drabkin's reagent (Sigma); then cyanmethemoglobin was measured at the 540 nm wavelength. HbF levels were quantified using the human Hemoglobin F ELISA Quantitation Kit (Bethyl Laboratory, Montgomery, TX). Briefly, 96-well plates were coated with sheep anti-human HbF antibody (1 mg/mL). After blocking with 1% bovine serum albumin, horse radish peroxidase-conjugated secondary antibody (1 mg/mL) was added. Raw data were analyzed using GraphPad PRISM (GraphPad Software, Inc., La Jolla, CA) and HbF levels were calculated as a ratio of total hemoglobin corrected for total protein (HbF/total Hb/total protein).
In general terms: An ELISA detects its analyte on a solid surface through an enzyme-linked reagent.

“And” between values parts separate entries of the source, which are not always exact repeats. Equal entries are not always repeated.

Consider FK228, for which, in assay [1], the “induction of γ-globin transcription at the mRNA level” value is listed as no more than 3.2 fold. For the same substance, the “γ/γ + 2β Mean” value in assay [2] (Line 1, firefly (γ) / renilla (β) luciferase corrected for total protein, mean, conc: Cys 10 mM, Hemin 50 μM, SAHA 2000 nM, FK228 1.5 nM, 1127Ox 1000 nM, JMA1 1.5 nM, JMA2 1.0 nM, JMA12 1000 nM, JMA26 500 nM, JMA33 1000 nM, JMA112 100 nM, untreated 0.0402) was found to be 0.1197; in assay [2] (Line 2, concentrations as in E1, untreated 0.1573) it was 0.6167; in assay [2] (Line 3, concentrations as in E1, untreated 0.0721), 0.1583. The “Fold change (γ/γ + 2β)” value in assay [2] (Line 1, concentrations as in E1) is reported as 2.975; in assay [2] (Line 2, concentrations as in E1), 3.929; in assay [2] (Line 3, concentrations as in E1) it was 2.194. For the same substance, the “concentration inducing γ-promoter activity” value in assay [3] is on record as 1 nM. In assay [4] (relative to untreated = 1, concentrations as in E7), the “Fold change in HbF levels” value is 2.4 fold and 2.454 fold. For the same substance, the “Fetal hemoglobin quantification, Mean (HbF/total Hb/total protein)” value in assay [4] (treated Day 11, harvested Day 14, conc: Cys 10 mM, Hemin 50 μM, SAHA 2000 nM, FK228 1.5 nM, JMA1 1.5 nM, JMA2 1.0 nM, JMA26 500 nM, JMA33 1000 nM, untreated 0.683) is reported as 1.676.
